Here are results for three molecules from BindingDB's records for doi:10.1021/jm00168a028 (University of Minnesota, 1990).

pKi: −log10 of the molar value. Where a SMILES comes first, the peptide text is derived from it. [ ]: non-standard residue; d: D form. The star is where a group is joined. Tyr(Nα,Nα-allyl2) = C=CCN(CC=C)[C@@H](Cc1ccc(O)cc1)C(=O)*; Aib = CC(C)(N)C(=O)O

A short description of experiment [1]: Binding affinity was measured by the displacement of [3H]- DADLE in guinea pig brain membrane of Opioid receptor delta 1. In general terms: Displacement assays read how much labelled ligand stays bound in the presence of the test substance.
Test in experiment [2]: as above
The source holds these as a separate data set.

Experiment [3] is described as follows: Binding affinity was measured by the displacement of [3H]- DADLE in guinea pig brain membrane of opioid receptor delta.

As usually defined, the pKi is the Ki on a negative log10 scale, so that one unit is a factor of ten. In experiment [1], `C=CCN(CC=C)[C@@H](Cc1ccc(O)cc1)C(=O)NC(C)(C)C(=O)NC(C)(C)C(=O)N[C@@H](Cc1ccccc1)C(=O)N[C@@H](CC(C)C)C(=O)O` [ICI-174864] ({Tyr(Nα,Nα-allyl2)}-[Aib][Aib]FL-OH) gave a pKi of 7.46.
The molecule `CN1CC[C@]23c4c5ccc(O)c4O[C@H]2c2[nH]c4ccccc4c2C[C@@]3(O)[C@H]1C5` showed a negative logarithm of the Ki (pKi) in experiment [2] of 9.15.
As to `COc1ccc2c3c1O[C@H]1c4[nH]c5ccccc5c4C[C@@]4(O)[C@@H](C2)N(CC2CC2)CC[C@]314` [22-cyclopropylmethyl-16-methoxy-(2S,13R)-14-oxa-11,22-diazaheptacyclo[13.9.1.01,13.02,21.04,12.05,10.019,25]pentacosa-4(12),5(10),6,8,15(25),16,18-heptaen-2-ol(HCl1.5H2O)], the negative-log Ki (pKi) in experiment [3] and in experiment [2] was 7.40 each time.
